# Experimental data from PubChem BioAssay (NCI).
#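 Exposure lasted 48 hours, with cells grown in 96-well plates and compounds tested at five concentrations. TGI is the concentration that stops growth completely.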
# Legend:
# Test in all cases: growth of human tumour cells (NCI), 48 h
# [1] = tested on: T-47D breast
# [2] = tested on: EKVX NSCLC
# [3] = tested on: NCI-H522 lung
# [4] = tested on: ACHN renal
# [5] = tested on: IGROV1 ovarian
# [6] = tested on: TK-10 renal
# [7] = tested on: SF-268 CNS
# [8] = tested on: OVCAR-5 ovarian
# [9] = tested on: SK-MEL-28 melanoma
# [10] = tested on: SF-295 CNS
# [11] = tested on: HCT-15 colon
# [12] = tested on: RPMI-8226 leukemia
# [13] = tested on: SK-MEL-2 melanoma
# [14] = tested on: SNB-75 CNS
# [15] = tested on: RXF 393 renal
# [16] = tested on: HOP-62 NSCLC
Structure (SMILES),TGI [1],TGI [2],TGI [3],TGI [4],TGI [5],TGI [6],TGI [7],TGI [8],TGI [9],TGI [10],TGI [11],TGI [12],TGI [13],TGI [14],TGI [15],TGI [16]
O=c1c(F)cn(Cc2c(Cl)cccc2Cl)c(=O)n1Cc1c(Cl)cccc1Cl,> 31.6 µM,> 31.6 µM,> 31.6 µM,> 31.6 µM,> 31.6 µM,> 31.6 µM,> 31.6 µM,> 31.6 µM,> 31.6 µM,> 31.6 µM,> 31.6 µM,> 31.6 µM,> 31.6 µM,> 31.6 µM,> 31.6 µM,> 31.6 µM
O=C1c2ccccc2C(=O)c2c(/C=C\N3CCCCC3)ccnc21,> 44 µM,31.2 µM,13.3 µM,21.1 µM,36.8 µM,34.4 µM,39.9 µM,16.2 µM,2.96 µM,5.25 µM,6.41 µM,52.6 µM,14 µM,7.2 µM,23.1 µM,13.9 µM
Cc1ccc(S(=O)(=O)N2CC2CCCCC=O)cc1 (configuration not stated),> 100 µM,> 100 µM,> 100 µM,> 100 µM,> 100 µM,> 100 µM,> 100 µM,> 100 µM,> 100 µM,> 100 µM,> 100 µM,> 100 µM,> 100 µM,> 100 µM,> 100 µM,> 100 µM
N=c1oc2ccccc2cc1C(=O)NC12CC3CC(CC(C3)C1)C2,22.7 µM,> 82.8 µM,14.8 µM,31.4 µM,> 65.6 µM,43.5 µM,> 100 µM,> 100 µM,> 100 µM,67.4 µM,67.5 µM,31.1 µM,31.3 µM,71.3 µM,24.2 µM,> 83.7 µM
COc1ccc(C(SCCO)(c2ccccc2)c2ccc(OC)cc2)cc1,34.1 µM,29.7 µM,24.9 µM,29.6 µM,46.2 µM,33.5 µM,26.8 µM,31.6 µM,34.1 µM,19 µM,30.3 µM,69.1 µM,25.8 µM,16.8 µM,17.7 µM,42 µM
C=C1C(=O)O[C@@H]2/C=C(C)/C=C\[C@@H]3O[C@@]3(C)C[C@@H](O)C12 (some centres not stated),23.6 µM,20.2 µM,19.6 µM,18.3 µM,28.6 µM,16.1 µM,84.7 µM,85.4 µM,35.8 µM,> 100 µM,27.6 µM,18.7 µM,> 100 µM,> 100 µM,76.4 µM,> 100 µM
O=C1c2cccc3cc([N+](=O)[O-])cc(c23)C(=O)N1Nc1ccc([N+](=O)[O-])cc1[N+](=O)[O-],> 31.6 µM,> 46.4 µM,28.6 µM,7.06 µM,25.5 µM,> 46.4 µM,> 31.6 µM,> 100 µM,18 µM,> 31.6 µM,27.4 µM,> 31.6 µM,> 100 µM,> 31.6 µM,> 31.6 µM,50.5 µM
O=C1c2sc(-c3ccc(Cl)cc3)cc2-n2cccc21,> 100 µM,> 100 µM,> 100 µM,> 100 µM,> 100 µM,> 100 µM,> 100 µM,> 100 µM,> 100 µM,> 100 µM,> 100 µM,> 100 µM,> 100 µM,> 100 µM,> 100 µM,> 100 µM
O=C(O)Cc1ccc([N+](=O)[O-])cc1[N+](=O)[O-],> 100 µM,> 100 µM,> 100 µM,> 100 µM,> 100 µM,> 100 µM,> 100 µM,> 100 µM,> 100 µM,> 100 µM,> 100 µM,> 100 µM,> 100 µM,> 100 µM,> 100 µM,> 100 µM
O=c1[nH]c(=O)n(C2COC(CO)C2O)cc1F (configuration not stated),> 100 µM,> 100 µM,> 100 µM,> 100 µM,> 100 µM,> 100 µM,> 100 µM,> 100 µM,> 100 µM,> 100 µM,> 100 µM,> 100 µM,> 100 µM,> 100 µM,60.8 µM,> 100 µM
O=C1NC2(CCN(CCc3ccccc3)CC2)Oc2ccccc21,> 100 µM,> 100 µM,> 100 µM,> 100 µM,> 100 µM,> 100 µM,> 100 µM,> 100 µM,> 100 µM,> 100 µM,> 100 µM,> 100 µM,> 100 µM,> 100 µM,> 100 µM,> 100 µM
CC(=O)CC1CCC(=O)/C=C/C(=O)OC(CC(C)=O)CCC(=O)/C=C/C(=O)O1 (configuration not stated),6.79 µM,21.2 µM,2.91 µM,11.2 µM,32.1 µM,19 µM,74 µM,31.5 µM,20.5 µM,18.4 µM,4.16 µM,> 100 µM,19.8 µM,28.8 µM,8.55 µM,42.8 µM
